Columns and labels:
A2780 cells [1] = assay: Annexin V/propidium iodide cell death assay, flow cytometry; format: cell-based, human; conditions: A2780, 15 µM, 24 h; mean of three experiments
Procedure: Both methods were performed according to the manufacturers’ protocols with 1 modification in the caspase induction assay, which was the use of the CellEvent^TM Caspase-3/7 Green Detection Reagent only for detection of Caspase-3/7 activation. […] After 24 h, the cells were washed once with PBS (0.1 M, pH 7.4), detached with trypsin (0.25% in ethylenediaminetetraacetic acid (EDTA), Sigma-Aldrich), resuspended in 500 µL of the culture medium and divided into 2 separate tubes, the first for apoptosis assay and the second one for caspase activation analysis. After staining with appropriate dyes, samples were analyzed on a BD FACSVerse flow cytometer (Becton Dickinson, Franklin Lakes, NJ, USA) in 3 separate experiments, while at least 10^4 events were recorded for each sample prepared in duplicate.

[2] = system: caspase 3 (Casp-3) in THP-1 cells; assay: Western blotting of apoptosis-related proteins; format: cell-based, human; conditions: THP-1, complexes 4 µM, 24 h, Western blot; for proteolytically activated Casp-3 (verified by cleaved PARP-1): cisplatin 10 µM
Procedure: In addition to the above-mentioned methods, the Western blotting method was used to shed light on the mechanisms associated with caspase 3 activation in the THP-1 cells. Two and a half milliliters of floating THP-1 monocytes resuspended in a serum-free RPMI 1640 medium were seeded into 6-well plates at the concentration of 10^6 cells/mL. Two hours later, complexes 3 and 5 were added at the concentration level of 4 µM. After 24 h incubation, the cells were collected by centrifugation (3000 g/5 min/4 °C), washed by cold PBS and resuspended in an ice-cold lysis buffer (50 mM Tris-HCl pH 7.5, 1 mM EGTA, 1 mM EDTA, 1 mM sodium orthovanadate, 50 mM sodium fluoride, 5 mM sodium pyrophosphate, 270 mM sucrose) with Roche cOmplete protease inhibitors (Roche Diagnostics, Basel, Switzerland). The cell lysates were centrifuged at 3000 g/5 min/4 °C and supernatants were mixed with a 5x Laemmli buffer [containing 250 mM Tris-HCl pH 6.8, 10% (w/v) SDS, 30% (v/v) glycerol, 5% (v/v) β-mercaptoethanol, 0.04% (w/v) bromphenol blue] and incubated at 70 °C for 5 min. […] The membranes were incubated at 4 °C for 16 h with a primary anti-cleaved caspase 3 (p17) antibody at the dilution 1:1000 (Cell Signaling, Danvers, MA, USA; products No. 9664), and an Apoptosis WB Cocktail (Abcam, Cambridge, UK; product No. ab136812) at the dilution recommended by the provider to detect β-actin, cleaved poly-(ADP-ribose) polymerase (PARP) and pro-caspase 3. After washing in a TBST buffer, the secondary anti-rabbit IgG antibody (Sigma-Aldrich, product No. A0545) was diluted 1:2500 and applied to the membranes, which were then incubated for 1 h at the laboratory temperature (~22 °C). The amount of bound secondary antibody was determined using an ECL reagent (Bio-Rad, Hercules, CA, USA). Chemiluminescence was detected using a Syngene PXi4 chemiluminescence imaging system (Cambridge, UK).

[3] = system: Ea.Hy 926 endothelial hybrid cells; parameters: method as in PMID 27936296; conditions: read-out: IC50 Ea.Hy 926 healthy endothelial hybrid cells; cited from earlier work
A2780 cells [4] = assay: cell cycle analysis by flow cytometry; format: cell-based, human; conditions: A2780, 15 µM, 24 h; untreated control 21.4 ± 0.8%
Procedure: Human ovarian cancer cell line A2780 (Sigma, Darmstadt, Germany) were used for this study. Cells were cultivated at 37 °C under a 5% CO2 atmosphere in an RPMI 1640 medium (Sigma Aldrich, Darmstadt, Germany) supplemented with (the final concentrations in medium): L-glutamine (2 mM), fetal bovine serum (FBS, 10%) and PenStrep (5 U penicillin, 50 µg streptomycin/mL).
After 24 h, the cells were washed once with PBS (0.1 M, pH 7.4) and cell cycle analysis was performed according to the protocol of BD Cycletest^TM Plus DNA kit (Becton Dickinson, Franklin Lakes, NJ, USA). Measurements were performed using BD FACSVerse flow cytometer (Becton Dickinson, Franklin Lakes, NJ, USA) in 3 independent experiments, each done in duplicate, while at least 5 × 10^3 events were recorded for each sample.

[5] = system: 518A2, Panc-1, MCF-7/Topo, KB-V1/Vbl, DLD-1, U-87 MG cancer cell lines; parameters: method as in PMID 27936296; conditions: range over cell lines; read-out: IC50 values on the mentioned cancer cell lines; cited from earlier work
[6] = system: primary culture of human hepatocytes (Hep); assay: toxicity against primary culture of human hepatocytes; format: cell-based; conditions: tested range 0.1–100 μM
[7] = system: cisplatin-resistant ovarian carcinoma (A2780R); assay: in vitro cytotoxicity, MTT assay; format: cell-based, human; conditions: mean ± SD, at least three independent experiments
Procedure: (§1) The testing was performed on the following human cancer cell lines: breast adenocarcinoma (MCF-7), osteosarcoma (HOS), lung adenocarcinoma (A549), prostate adenocarcinoma (PC-3), ovarian carcinoma (A2780), cisplatin-resistant ovarian carcinoma (A2780R) and colorectal adenocarcinoma (Caco-2) obtained from ATCC collection of cell lines and cultivated according to producer’s instructions.

[8] = system: breast adenocarcinoma (MCF-7); assay: in vitro cytotoxicity, MTT assay; format: cell-based, human; conditions: mean ± SD, at least three independent experiments
Procedure: as §1

[9] = system: prostate adenocarcinoma (PC-3); assay: in vitro cytotoxicity, MTT assay; format: cell-based, human; conditions: mean ± SD, at least three independent experiments
Procedure: as §1

[10] = system: lung adenocarcinoma (A549); assay: in vitro cytotoxicity, MTT assay; format: cell-based, human; conditions: mean ± SD, at least three independent experiments
Procedure: as §1

[11] = system: ovarian carcinoma (A2780); assay: in vitro cytotoxicity, MTT assay; format: cell-based, human; conditions: mean ± SD, at least three independent experiments
Procedure: as §1

osteosarcoma (HOS) = assay: in vitro cytotoxicity, MTT assay; format: cell-based, human; conditions: mean ± SD, at least three independent experiments
[12] = system: colorectal adenocarcinoma (Caco-2); assay: in vitro cytotoxicity, MTT assay; format: cell-based, human; conditions: mean ± SD, at least three independent experiments
[13] = system: NF-κB/AP-1 in THP-1-XBlue-MD2-CD14 cells; assay: LPS-stimulated NF-κB/AP-1 activity, SEAP reporter; format: cell-based, human; conditions: complexes applied at 200 nM and 50 nM, 1 h pre-treatment, read 24 h after LPS
Procedure: The activity of transcription factors NF-κB/AP-1 was evaluated using the THP-1-XBlue^TM-MD2-CD14 cell line [obtained from Invivogen (San Diego, CA, USA)], expressing an NF-κB/AP-1-inducible secreted embryonic alkaline phosphatase (SEAP) reporter gene, as was described previously. The complexes 1–5 were applied to the cells at the concentrations of 200 nM and 50 nM, pomiferin (at 200 nM), and a reference drug prednisone at 1 μM, respectively. Lipopolysaccharide (LPS) from E. coli 0111:B4 (Sigma-Aldrich) dissolved in PBS was used to trigger an inflammation-like reaction. The activity of the SEAP was determined by Quanti-Blue^TM reagent (Invivogen, San Diego, CA, USA) according to the manufacturer’s instructions 24 h after lipopolysaccharide stimulation. The activity of NF-κB/AP-1 was determined spectrophotometrically using the FLUOstar Omega microplate reader (BMG Labtech, Ortenberg, Germany) at 655 nm and compared with that of the vehicle.

[14] = system: THP-1 human monocytic leukemia cell line; assay: relative cell viability, WST-1; format: cell-based; conditions: serum-free medium, 24 h, six independent experiments
Procedure: The THP-1 human monocytic leukemia cell line was purchased from the European Collection of Cell Cultures (ECACC, Salisbury, UK). Cells were cultured in an RPMI 1640 medium containing stabilized 2 mM L-glutamine (Biosera, Nuaille, France) supplemented with the mixture of antibiotics [100 U/mL penicillin and […] (Biosera, Nuaille, France)], and 10% foetal bovine serum (FBS) (HyClone, Marlborough, MA, USA). The cells were kept in an incubator at 37 °C in an atmosphere of air containing 5% CO2 and 100% humidity.
The relative cell viability of floating monocytes THP-1 were determined after 24 h incubation in a serum-free medium with compounds 1–5 dissolved in N,N-dimethylformamide (DMF) at increasing concentrations (20–0.125 µM) by the cell proliferation reagent WST-1 (Roche, Basel, Switzerland) according to the manufacturer’s manual, as we described previously. The IC50 values were calculated from resultant viability curves by four-parameter logistic (4PL) analysis.

THP-1 cells = assay: intracellular production of reactive oxygen species, DCFH2-DA; format: cell-based, human; conditions: THP-1, 200 nM, 23.5 h; pyocyanin 100 μM as radical-forming control
Procedure: THP-1 cells were used for the determination of the potential of tested compounds to initiate the intracellular ROS production, as was described previously with some minor modifications. Cells in serum-free RPMI 1640 medium without phenol red were seeded into black 96-well plates (5 × 10^4 cells/100 µL/well). After 2 h of incubation, the cells were treated with copper(II) complexes 1–5 at a concentration of 200 nM, and pyocyanin at a final concentration of 100 μM was added into control group to trigger production of reactive oxygen species (ROS), respectively. After the incubation at 37 °C for either 1.5 h or 23.5 h, dichlorofluorescin diacetate (DCFH2-DA) (5 μg/mL) was added and cells were kept under the same conditions hereafter. Thirty minutes later, fluorometric measurement of the fluorescent product DCF was conducted using a Tecan Infinite F200 microplate reader (Tecan, Männedorf, Switzerland) with λ(ex./em.) = 485/520 nm.

[15] = system: MCF-7/Topo breast adenocarcinoma cells; parameters: method as in PMID 27936296; conditions: 72 h incubation; cited from earlier work
518A2 melanoma cells = system: 518A2 melanoma cells; parameters: method as in PMID 23973682; conditions: 72 h incubation; cited from earlier work
DLD-1 colon carcinoma = system: DLD-1 colon carcinoma; parameters: method as in PMID 27936296; conditions: 72 h incubation; cited from earlier work
U-87 MG glioblastoma = system: U-87 MG glioblastoma; parameters: method as in PMID 27936296; conditions: 72 h incubation; cited from earlier work
[16] = system: KB-V1/Vbl cervix carcinoma cells; parameters: method as in PMID 27936296; conditions: 72 h incubation; cited from earlier work
[17] = system: Panc-1 pancreas carcinoma cells; parameters: method as in PMID 27936296; conditions: 72 h incubation; cited from earlier work
A2780 cell line = system: A2780 cell line; parameters: method as in PMID 32578983; conditions: 24 h incubation; cited from earlier work
pUC19 plasmid DNA = assay: nuclease-like activity, plasmid DNA cleavage; format: biochemical

## N.N.[Cl][Pt][Cl] [cisplatin, reference compound]
A2780 cells [1]
  Annexin V +/PI + cells (late apoptotic/secondary necrotic): 23.7 ± 2.0%
  Annexin V +/PI − cells (early apoptotic): 41.5 ± 0.8%
[2]
  proteolytically activated Casp-3 (verified by cleaved PARP-1): detected
[3]
  IC50: 17.3 ± 1.9 µM
A2780 cells [4]
  cells in the S phase of the cell cycle: 51.4 ± 2.2%
[5]
  IC50: 4 to 32.6 µM
[6]
  IC50: > 80 µM
[7]
  IC50: > 80 µM
[8]
  IC50: 30.8 ± 1.8 µM
[9]
  IC50: > 80 µM
[10]
  IC50: > 80 µM
[11]
  IC50: 26.3 ± 2.1 µM
Osteosarcoma (HOS)
  IC50: 30 ± 5.9 µM

## CC(C)=CCc1c2c(c3occ(-c4ccc(O)c(O)c4)c(=O)c3c1[O-])C=CC(C)(C)O2.CO.CO.O=[N+]([O-])[O-].[Cu+2].c1cnc2c(c1)ccc1cccnc12 [Complex 3, (3-(3,4-dihydroxyphenyl)-8,8-dimethyl-6-(3-methylbut-2-en-1-yl)-4H,8H-benzo[1,2-b:3,4-b′]dipyran-4-one-5-olato-κ^2O4:O5)(1,10-phenanthroline–κ^2N:N)copper(II) nitrate methanol disolvate]
[2]
  levels of pro-caspase 3 (pro-Casp-3): dramatically decreased
  proteolytically activated Casp-3 (verified by cleaved PARP-1): detected
[12]
  IC50: 4.2 ± 1.9 µM
[13]
  inhibition of LPS-stimulated NF-κB/AP-1 activation: no influence on the activity
[14]
  IC50: > 10 µM
[6]
  IC50: > 100 µM
[7]
  IC50: 2.9 ± 1.2 µM
[8]
  IC50: 5.9 ± 0.6 µM
[9]
  IC50: 13 ± 1.4 µM
[10]
  IC50: 3.5 ± 0.2 µM
[11]
  IC50: 5.8 ± 2.2 µM
Osteosarcoma (HOS)
  IC50: 3.5 ± 0.1 µM
THP-1 cells
  ROS production, long term: highest pro-oxidant potential of all the complexes

## O=c1c(-c2ccc(O)cc2)coc2cc(O)cc([O-])c12.O=c1c(-c2ccc(O)cc2)coc2cc(O)cc([O-])c12.[Cu+2] [[Cu(L)2], bis[3-(4-hydroxyphenyl)-7-hydroxy-4H-benzopyran-4-one-5-olato-κO^2] copper(II)]
[15]
  IC50: 15 ± 1.5 µM
[3]
  IC50: 20.1 ± 0.7 µM
518A2 melanoma cells
  IC50: 10.9 ± 1.4 µM
DLD-1 colon carcinoma
  IC50: 21.2 ± 1.8 µM
U-87 MG glioblastoma
  IC50: 30.2 ± 5 µM
[16]
  IC50: 8 ± 0.2 µM
[17]
  IC50: 16.9 ± 0.8 µM

## c1ccc(-c2ccccn2)nc1 [bipy, 2,2′-bipyridine]
A2780 cell line
  IC50: > 100 µM

## c1cnc2c(c1)ccc1cccnc12 [phen, 1,10-phenanthroline]
A2780 cell line
  IC50: > 100 µM

## CC(C)=CCc1c2c(c3occ(-c4ccc(O)c(O)c4)c(=O)c3c1[O-])C=CC(C)(C)O2.CO.CO.O=[N+]([O-])[O-].[Cu+2].c1ccc(-c2ccccn2)nc1 [Complex 1, (3-(3,4-dihydroxyphenyl)-8,8-dimethyl-6-(3-methylbut-2-en-1-yl)-4H,8H-benzo[1,2-b:3,4-b′]dipyran-4-one-5-olato-κ^2O4:O5)(2,2′-bipyridine–κ^2N:N)copper(II) nitrate methanol disolvate]
pUC19 plasmid DNA; 10 µM, water-containing medium (10% DMF), 37 °C, 1 h
  plasmid DNA nicked to OC-form: ca. 30%
pUC19 plasmid DNA; 0.66 mM H2O2, scavengers equimolar to complex
  DNA cleavage in the presence of ROS scavengers (KI, NaN3, DMSO): decreased by DMSO
[12]
  IC50: 13.7 ± 7.4 µM
[13]
  inhibition of LPS-stimulated NF-κB/AP-1 activation: able to inhibit
[14]
  IC50: 4 ± 1.1 µM
[6]
  IC50: > 100 µM
[7]
  IC50: 5.6 ± 0.3 µM
[8]
  IC50: 23.8 ± 0.2 µM
[9]
  IC50: 22.1 ± 1.9 µM
[10]
  IC50: 20.8 ± 1.5 µM
[11]
  IC50: 12.1 ± 1.5 µM
Osteosarcoma (HOS)
  IC50: 21.5 ± 1.4 µM
THP-1 cells
  ROS production, long term: elevated the ROS levels similarly as pyocyanin

Source: PMC8305652, “Copper(II) Complexes Containing Natural Flavonoid Pomiferin Show Considerable In Vitro Cytotoxicity and Anti-inflammatory Effects” (International Journal of Molecular Sciences, 2021)
